Source: PubChem BioAssay (NCI)
Where “and” joins values, the source holds several entries; their conditions need not be identical. Equal entries are not always repeated.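 96-well plates; 48 h exposure; 5 concentrations. Endpoints by linear interpolation between flanking doses. Not reached: highest tested concentration assigned. GI50 is the concentration that inhibits growth by half. At the TGI there is no net growth.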

Key:
Experiment in all cases: inhibition of tumour cell growth, NCI panel, 48 h
[1] = system: HCT-116 colon
[2] = system: HS 578T breast
[3] = system: M14 melanoma
[4] = system: MCF7 breast
[5] = system: MDA-MB-231 breast
[6] = system: OVCAR-4 ovarian
[7] = system: RPMI-8226 leukemia
[8] = system: RXF 393 renal
[9] = system: SN12C renal
[10] = system: UACC-62 melanoma

Compound | GI50 [1] [µM] | TGI [1] [µM] | GI50 [2] [µM] | TGI [2] [µM] | GI50 [3] [µM] | TGI [3] [µM] | GI50 [4] | TGI [4] [µM] | GI50 [5] [µM] | TGI [5] [µM] | GI50 [6] [µM] | TGI [6] [µM] | GI50 [7] [µM] | TGI [7] [µM] | GI50 [8] [nM] | TGI [8] [µM] | GI50 [9] [µM] | TGI [9] [µM] | GI50 [10] [µM] | TGI [10] [µM]
O=C(COc1cccc(/C=C2\Oc3ccc4ccccc4c3C2=O)c1)c1ccc([N+](=O)[O-])cc1 | 16.5 | 40.9 | 18.2 | 56.1 | 18.3 | 53.4 | 11.1 µM | 28.6 | 18.8 | 68.8 | 20 | 60.3 | 1.12 | 13.3 | 10600 | 25.2 | 13.9 | 32.5 | 14.1 | 30.4
O=c1[nH]c(=O)n(C2OC(CO)C(O)C2O)cc1F (stereo not given) | 0.00778 | 7.27 | 0.031 | > 100 | 0.0819 | > 75.8 | 0.00603 µM and < 0.0164 µM | > 56.4 | – | > 100 | – | 17.7 | 0.0742 | 44.8 | 0.04 | 2.45 | – | > 100 | 0.0515 | 7.56
COc1ccc(C(Nc2ccccn2)c2cc(C(C)(C)C)cc(C(C)(C)C)c2O)cc1 (stereo not given) | – | > 100 | – | > 100 | – | 54.9 | – | > 100 | – | > 100 | – | > 100 | – | > 100 | – | 38.6 | – | > 100 | – | 67.1
CCCCC[C@H]1C/C=C2/C(=O)C(Cl)=C[C@@H]2C/C=C\CCCC(=O)O1 | 0.201 | 0.57 | 1.1 | 25 | 0.422 | 0.999 | 0.0886 µM | 2.7 | 0.642 | 2.24 | 0.735 | 3.83 | 0.171 | 1.52 | 457 | 0.868 | 0.333 | 0.905 | 0.411 | 1
O=C(O)c1cc(Cl)cc(Cc2cc(Cl)cc(C(=O)O)c2O)c1O | – | > 100 | – | > 100 | – | > 100 | – | > 100 | – | > 100 | – | > 100 | – | > 100 | – | > 100 | – | > 100 | – | > 100
CCCCNCCCCCNc1cc(OC)cc2cccnc12 | 13.6 | 26.6 | 21.7 | 47.9 | 14.9 | 28.5 | > 100 µM | > 100 | 23.2 | 50.8 | 26.2 | > 100 | 15.5 | 39.8 | 12300 | 27.9 | 36.5 | > 100 | 19.9 | 40.3
OCC1OC(n2cnc3c(NCc4ccccc4O)ncnc32)C(O)C1O (stereo not given) | 0.131 | 3.4 | 1.96 | > 58.6 | 0.756 | 11.8 | 2.05 µM | 17.1 | 0.0769 | 3.28 | 0.294 | 8.14 | 5.11 | > 63.6 | 4620 | > 100 | 0.178 | 20 | 1.27 | 24.2
N/C(=N/S(=O)(=O)c1cc(C(=O)Nc2ccc(F)cc2)c(Cl)cc1SCc1ccccc1)Nc1ccccc1O | 1.95 | 4 | 1.72 | 3.8 | 3.87 | 14.4 | 2.79 µM | 6.13 | 1.54 | 3.1 | 2.22 | 5.14 | 2.61 | 6.1 | 1930 | 3.94 | 1.88 | 3.7 | 1.84 | 3.43
CC(C)(C)OC(=O)N1Cc2cc3ccccc3nc2C1CO (stereo not given) | > 100 | > 100 | > 100 | > 100 | > 100 | > 100 | > 100 µM | > 100 | > 100 | > 100 | > 100 | > 100 | > 100 | > 100 | > 100000 | > 100 | > 100 | > 100 | > 100 | > 100
NCCCNc1nc2ccccc2c2c(=O)c3cc(F)cc(Cl)c3sc12 | 1.72 | 3.12 | 1.68 | 3.62 | 1.78 | 3.28 | 1.19 µM | 2.68 | 1.58 | 3.07 | 1.82 | 3.63 | 2.13 | 5.03 | 1620 | 3.16 | 1.71 | 3.24 | 1.82 | 3.52
NC(=O)c1ncn2c(=O)n(CCCl)nnc12 | – | 369 | – | 695 | – | 500 | 68.3 µM | 379 | – | 584 | > 69.4 | 437 | – | 1250 | – | 337 | – | 546 | 44.9 | 137
OCC1OC(n2cnc3c(NCc4ccco4)ncnc32)C(O)C1O (stereo not given) | 0.338 | 1.59 | 3.38 | > 100 | 2.44 | 17.2 | 0.72 µM | > 25.5 | 0.348 | 18.8 | 2.8 | 18.8 | 3 | 21.3 | 2210 | 15 | 0.386 | > 100 | 3.34 | 29.7
COc1cc(NCCC2CCCCN2)c2ncccc2c1OC (stereo not given) | 1.94 | 3.7 | 4.34 | 31.1 | 16.5 | 36.3 | 3.19 µM | 15.2 | 3.02 | 12.5 | 1.5 | 2.86 | 10.1 | 50.8 | 22800 | 38.5 | 2.23 | 6.77 | 2.24 | 6.19
C=C1C(=O)O[C@H]2[C@H]1CC/C(COC(=O)/C=C\C(=O)NCc1ccc(Cn3c(=O)sn(-c4ccc(Cl)cc4)c3=O)cc1)=C\CC[C@@]1(C)O[C@@H]21 | 0.144 | 0.708 | 0.954 | 2.64 | 0.639 | 1.48 | 0.36 µM | 1.41 | 0.758 | 1.76 | 0.685 | 1.37 | 0.27 | 2.05 | 476 | 1.09 | 0.666 | 1.63 | 0.724 | 1.47
CN(C)C/C=C/C(=O)Nc1cc2c(Nc3cccc(Cl)c3F)ncnc2cc1OCCOC(F)F | 1.87 | 11 | 1.46 | 7.02 | 3.08 | 14.3 | 1.49 µM | 12 | 1.09 | 7.78 | 1.5 | 11.6 | 1.53 | 5.27 | 566 | 2.71 | 0.317 | 7.15 | 1.86 | 11.1
NS(=O)(=O)c1cc(C(=O)O)c(Cl)c([N+](=O)[O-])c1Cl | – | > 100 | – | > 100 | – | > 100 | – | > 100 | – | > 100 | – | > 100 | – | > 100 | – | > 100 | – | > 100 | – | > 100
CC1(C)CN(CCNc2nccc(-c3c(-c4cccc(O)c4)nc4sccn34)n2)S(=O)(=O)N1 | 5.05 | > 33.2 | 4.72 | 25 | 0.317 | > 26.4 | 9.66 µM | > 33.2 | 7.94 | > 33.2 | 12.8 | > 33.2 | 16.6 | > 33.2 | 3000 | 21.6 | 9.86 | > 33.2 | 0.116 | 3.3
CCOC(=O)c1cc2c(n1Cc1cc(OC)cc(OC)c1)-c1oncc1CC2 | 0.157 | > 100 | 0.156 | > 96.2 | 0.163 | > 100 | 0.0492 µM | > 100 | 1.09 | > 95.8 | 1.06 | > 100 | 0.354 | > 35.4 | 136 | > 100 | 0.994 | > 100 | 0.403 | > 100
Nc1nc(N)c(-c2ccc(Cl)c(Cl)c2)c(CP(Cl)(Cl)(Cl)Br)n1 | 3.52 | > 100 | 24.4 | > 100 | 6.62 | > 100 | 16.1 µM | > 100 | 9.62 | > 100 | 53.8 | > 100 | 17.3 | > 100 | 18100 | > 100 | 6.47 | > 100 | 6.4 | 32.2
O=C(CC1Sc2ccccc2NC1=O)NNc1ccc(F)cc1 (stereo not given) | 77.3 | > 100 | 72.4 | > 100 | 5.5 | > 100 | 52 µM | > 100 | 47.6 | > 100 | > 100 | > 100 | 52 | > 100 | > 100000 | > 100 | 22.1 | > 100 | 6.94 | > 100
C[C@@H](Oc1cc(-c2cnn(C3CCNCC3)c2)cnc1N)c1c(Cl)cc(F)cc1Cl | 1.12 | 5.16 | 2.41 | 10.1 | 1.54 | 3.23 | 0.516 µM | 2.12 | 1.61 | 5.22 | 2.86 | 10.8 | 2.41 | 8.6 | 1500 | 3.09 | 1.95 | 13.3 | 1.61 | 3.65
CCN(CC)CCCNc1cc(OC)c(OC)c2cccnc12 | 2.18 | 7.58 | 7.3 | 42.8 | 12.6 | 37.6 | 1.71 µM | 5.47 | 6.69 | 51.4 | 1.68 | 3.18 | 11.2 | 40.7 | 19100 | 34.3 | 2.47 | 7.7 | 3.16 | 28.7
CCOC(=O)c1ccc(NC(=O)c2cccc(NC3=C(Cl)C(=O)N(Cc4ccccc4)C3=O)c2)cc1 | > 100 | > 100 | > 100 | > 100 | > 100 | > 100 | 51.3 µM | > 100 | 92 | > 100 | > 100 | > 100 | 37.5 | > 100 | > 100000 | > 100 | > 100 | > 100 | > 100 | > 100
